Measurements reported in patent publication EP4692071A1, “PHOTOCHROMIC COMPOUND, NAPHTHOL DERIVATIVE, CURABLE COMPOSITION, OPTICAL ARTICLE, LENS, AND EYEGLASS” (TOKUYAMA CORPORATION, priority 2023, dated 2024).

Key:
Assay type in all cases: physicochemical
[1] = 35°C color optical density (A35): absorbancy difference ε(240)-ε(0) after 240 s light irradiation at 35°C; conditions: 240 s irradiation; for 35°C color optical density (-): comparative compounds
Summary of the method: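 Color optical density at 35°C (A35) came from light exposure of the sample at 35°C lasting 240 seconds. At the first and second absorption wavelengths, the absorbancy before irradiation, ε(0), was subtracted from the absorbancy measured after irradiation, ε(240). This difference was taken as the measure of color optical density.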

[2] = High-temperature color development rate (A35/A23×100), temperature dependency; conditions: for A35/A23 *100: photochromic laminate prepared by coating method; for Temperature change rate (%): comparative compounds, corresponds to A35/A23×100
Summary of the method: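 The sample was irradiated with light for 240 seconds at 23°C and separately at 35°C. The gain in absorbance over the unirradiated state, ε(240)−ε(0), gave the color optical densities A23 and A35. A35 divided by A23, multiplied by 100, expressed how well color development holds up at the higher temperature.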

[3] = 23°C color fading half-life τ1/2 after 240 s light irradiation
Protocol: • [1] Maximum Absorption Wavelength (λmax): The maximum absorption wavelength after color development, measured using a spectrophotometer (instantaneous multichannel photodetector MCPD3000) manufactured by Otsuka Electronics Co., Ltd. was used as an indicator for the color tone during the color development. • [2] 23°C Color Optical Density (A23): A difference between an absorbancy measured after light irradiation at 23°C for 240 seconds {ε(240)} and an absorbancy without light irradiation ε(0) at the maximum absorption wavelength was used as an indicator for the color optical density. […] 35°C Color Optical Density (A35): A difference between an absorbancy measured after light irradiation at 35°C for 240 seconds {ε(240)} and an absorbancy without light irradiation ε(0) at the first and second absorption wavelengths was used as an indicator for the color optical density. […] 23°C color fading half-life [τ1/2 (sec.)]: A time required for the absorbancy of the sample at the maximum absorption wavelength to decrease to 1/2 of {ε(240)-ε(0)} when the light irradiation is terminated after the light irradiation at 23°C for 240 seconds, was used as an indicator for the color fading speed. The shorter this time, the higher the color fading speed. • [6] Residual rate (A90/A0×100): The obtained photochromic plastic lens was subjected to accelerated deterioration using a xenon weather meter X25 manufactured by Suga Test Instruments Co., Ltd. for 90 hours. Subsequently, the color optical density was evaluated before and after the test, then a color optical density before the test (A0) and a color optical density after the test (A90) were measured, and a ratio (A90/A0) was defined as a residual rate. The residual rate was used as an indicator for a color developing durability. The higher the residual rate, the higher the color developing durability.

[4] = Maximum absorption wavelength (λmax) after color development, spectrophotometer MCPD3000; conditions: for Maximum absorption wavelength: photochromic laminate prepared by coating method, after color development
Summary of the method: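 Read-out: absorbance at λmax, multichannel photodetector spectrophotometer. Colour density = ε(240) − ε(0), 240 s light, 23°C. τ1/2 = time for ε(240) − ε(0) to halve after light off. Residual rate compares density before and after 90 h xenon weathering.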

[5] = Residual rate (A90/A0×100) after 90 h accelerated deterioration in xenon weather meter X25, color developing durability; conditions: for Residual rate (%): xenon weather meter 90 hours; for Residual rate: photochromic laminate prepared by coating method, after 90 h accelerated deterioration
Summary of the method: (§1)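 Absorbance differences between the dark and 240 s-irradiated states, measured at 23°C, served as the density metric. The same signal was followed after irradiation to obtain the half-decay time. Lenses then underwent 90 h of accelerated xenon deterioration.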

[6] = 23°C color optical density (A23): absorbancy difference ε(240)-ε(0) after 240 s light irradiation at 23°C; conditions: 240 s irradiation; for 23°C color optical density (-): comparative compounds
Summary of the method: as §1

[7] = photochromic laminate by coating method
[8] = photochromic laminate by coating method, absorption band at 449 nm
[9] = photochromic laminate by coating method, absorption band at 569 nm
[10] = photochromic laminate by coating method, 40 µm photochromic layer on thiourethane lens, 0.25 mmol compound per 100 g monomers
[11] = photochromic laminate by coating method, at the maximum absorption wavelength
[12] = binder sheet (binder method), measured at 451 nm absorption maximum
[13] = binder sheet (binder method), measured at 565 nm absorption maximum
[14] = photochromic laminate by coating method, at 451 nm absorption maximum
[15] = photochromic laminate by coating method, at 566 nm absorption maximum
[16] = binder sheet (binder method), urethaneurea resin photochromic layer between polycarbonate sheets, 0.25 mmol per 100 parts by mass resin

| SMILES | A35/A23 *100 (%) [2, 7] | 23°C color fading half-life [3] | Residual rate (%) [5, 7] | A35/A23 *100 [2] | Maximum absorption wavelength [4] | Residual rate [5] | A35 (-) [1, 7] | A23 (-) [6, 11] | A35 (-) ([1]; binder sheet (binder method)) | A35/A23 *100 (%) ([2]; binder sheet (binder method)) | Maximum absorption wavelength (nm) [4, 16] | Residual rate (%) ([5]; binder sheet (binder method)) | A23 (-) ([6]; binder sheet (binder method)) | Maximum absorption wavelength (nm) [4, 10] | also measured |
| --- | --- | --- | --- | --- | --- | --- | --- | --- | --- | --- | --- | --- | --- | --- | --- |
| CCCOc1ccc(C2(c3ccc(OC)cc3)C=Cc3c4c(c5cc(N(c6ccc(C(F)(F)F)cc6)c6ccc(C(F)(F)F)cc6)c(OC)cc5c3O2)-c2ccccc2C4(CCCCOC)CCCCOC)cc1 (stereo not drawn) [Example 11 Formula (63)] | 61% | 40 s | 83% |  |  |  |  |  |  |  |  |  |  |  | A35 (-) ([1]; photochromic laminate by coating method, at 462 nm absorption maximum): 0.46 -; A35 (-) ([1]; photochromic laminate by coating method, at 576 nm absorption maximum): 0.41 -; Maximum absorption wavelength (nm) ([4]; photochromic laminate by coating method, 40 µm photochromic layer on thiourethane lens, 0.25 mmol compound per 100 g monomers, at 462 nm absorption maximum): 462 nm; Maximum absorption wavelength (nm) ([4]; photochromic laminate by coating method, 40 µm photochromic layer on thiourethane lens, 0.25 mmol compound per 100 g monomers, at 576 nm absorption maximum): 576 nm; A23 (-) ([6]; photochromic laminate by coating method, at the maximum absorption wavelength, at 462 nm absorption maximum): 0.75 -; A23 (-) ([6]; photochromic laminate by coating method, at the maximum absorption wavelength, at 576 nm absorption maximum): 0.66 - |
| COc1ccc(C2(c3ccc(OC)cc3)C=Cc3c4c(c5ccc(OC)cc5c3O2)-c2ccccc2C4(C)C)cc1 [Formula (D), reference compound] |  |  |  |  |  |  |  |  |  |  |  |  |  |  | 35°C color optical density (-) [1, 8]: 0.44 -; 35°C color optical density (-) [1, 9]: 0.55 -; Temperature change rate (%) [2, 7]: 63%; A35/A23 *100 ([2]; absorption band at 449 nm): 64%; A35/A23 *100 ([2]; absorption band at 569 nm): 63%; Maximum absorption wavelength (nm) ([4]; photochromic laminate by coating method, 40 µm photochromic layer on thiourethane lens, 0.25 mmol compound per 100 g monomers, absorption band at 449 nm): 449 nm; Maximum absorption wavelength (nm) ([4]; photochromic laminate by coating method, 40 µm photochromic layer on thiourethane lens, 0.25 mmol compound per 100 g monomers, absorption band at 569 nm): 569 nm; Maximum absorption wavelength ([4]; absorption band at 449 nm): 449 nm; Maximum absorption wavelength ([4]; absorption band at 569 nm): 569 nm; Residual rate (%) [5, 8]: 74%; Residual rate (%) [5, 9]: 73%; Residual rate ([5]; absorption band at 449 nm): 74%; Residual rate ([5]; absorption band at 569 nm): 73%; 23°C color optical density (-) [6, 8]: 0.69 -; 23°C color optical density (-) [6, 9]: 0.87 - |
| CCCCCCCCC1(CCCCCCCC)c2cc([Si](c3ccccc3)(c3ccccc3)c3ccccc3)ccc2-c2c1c1c(c3cc(OC)c(N(c4ccccc4)c4ccccc4)cc23)OC(c2ccc(OCCC)cc2)(c2ccc(OCCC)cc2)C=C1 [Example 56 Formula (128)] | 69% |  | 81% |  |  |  | 1.24 - | 1.80 - |  |  |  |  |  | 508 nm |  |
| CCC1(CC)CCC2(CC1)c1ccccc1-c1c2c2c(c3cc(OC)c(N(C)c4ccc(C(F)(F)F)cc4)cc13)OC(c1ccc(C)cc1)(c1ccc(OC)cc1)C=C2 (stereo not drawn) [Example 9 Formula (57)] | 64% |  |  |  |  |  |  |  |  |  |  |  |  |  | A35 (-) [1, 12]: 0.49 -; A35 (-) [1, 13]: 0.56 -; A35 (-) [1, 14]: 0.47 -; A35 (-) [1, 15]: 0.55 -; A35/A23 *100 (%) [2, 12]: 66%; A35/A23 *100 (%) [2, 13]: 65%; Maximum absorption wavelength (nm) ([4]; binder sheet (binder method), urethaneurea resin photochromic layer between polycarbonate sheets, 0.25 mmol per 100 parts by mass resin, measured at 451 nm absorption maximum): 451 nm; Maximum absorption wavelength (nm) ([4]; binder sheet (binder method), urethaneurea resin photochromic layer between polycarbonate sheets, 0.25 mmol per 100 parts by mass resin, measured at 565 nm absorption maximum): 565 nm; Maximum absorption wavelength (nm) ([4]; photochromic laminate by coating method, 40 µm photochromic layer on thiourethane lens, 0.25 mmol compound per 100 g monomers, at 451 nm absorption maximum): 451 nm; Maximum absorption wavelength (nm) ([4]; photochromic laminate by coating method, 40 µm photochromic layer on thiourethane lens, 0.25 mmol compound per 100 g monomers, at 566 nm absorption maximum): 566 nm; Residual rate (%) [5, 12]: 95%; Residual rate (%) [5, 13]: 96%; Residual rate (%) [5, 14]: 83%; Residual rate (%) [5, 15]: 84%; A23 (-) [6, 12]: 0.75 -; A23 (-) [6, 13]: 0.88 -; A23 (-) ([6]; photochromic laminate by coating method, at the maximum absorption wavelength, at 451 nm absorption maximum): 0.73 -; A23 (-) ([6]; photochromic laminate by coating method, at the maximum absorption wavelength, at 566 nm absorption maximum): 0.86 - |
| CCCCC1(CCCC)c2ccccc2-c2c1c1c(c3cc(OC)c(N(c4ccc(F)cc4)c4ccc(F)cc4)cc23)OC(c2ccc(OC)cc2)(c2ccc(OC)cc2)C=C1 [Example 12 Formula (66)] | 67% |  | 81% |  |  |  | 0.92 - | 1.38 - | 0.93 - | 67% | 501 nm | 94% | 1.40 - | 501 nm |  |
| COc1ccc(C2(c3ccc(OC)cc3)C=Cc3c4c(c5cc(N6CCc7ccccc7C6)c(OC)cc5c3O2)-c2ccccc2C4(C)C)cc1 [Formula (F), reference compound] |  |  | 50% |  |  |  |  |  | 1.30 - | 70% | 481 nm | 64% | 1.85 - | 481 nm | 35°C color optical density (-) [1, 7]: 1.28 -; Temperature change rate (%) [2, 7]: 71%; 23°C color optical density (-) [6, 7]: 1.81 - |
| CCCC1(CCC)c2ccccc2-c2c1c1c(c3cc(OC)c(N(c4ccccc4)c4ccc(C)cc4)cc23)OC(c2ccc(OC)cc2)(c2ccc(OC)cc2)C=C1 [Example 13 Formula (68)] | 69% |  | 83% |  |  |  | 1.08 - | 1.57 - | 1.09 - | 68% | 512 nm | 96% | 1.6 | 512 nm |  |

Further lines, with some results ahead:

| A35/A23 *100 (%) [2, 7] | 23°C color fading half-life [3] | Residual rate (%) [5, 7] | A35/A23 *100 [2] | Maximum absorption wavelength [4] | Residual rate [5] | A35 (-) [1, 7] | A23 (-) [6, 11] | A35 (-) ([1]; binder sheet (binder method)) | A35/A23 *100 (%) ([2]; binder sheet (binder method)) | Maximum absorption wavelength (nm) [4, 16] | Residual rate (%) ([5]; binder sheet (binder method)) | A23 (-) ([6]; binder sheet (binder method)) | SMILES | Maximum absorption wavelength (nm) [4, 10] | also measured |
| --- | --- | --- | --- | --- | --- | --- | --- | --- | --- | --- | --- | --- | --- | --- | --- |
|  | 56 s |  | 69% | 530 nm | 65% |  |  |  |  |  |  |  | CCCc1ccc(C2(c3ccc(OC)cc3)C=Cc3c4c(c5cc(N6CCc7ccccc76)c(OC)cc5c3O2)-c2ccc(-c3ccc(C(F)(F)F)cc3)cc2C4(CCOC)CCOC)cc1 (stereo not drawn) [Formula (85A)] |  |  |
|  | 66 s |  | 65% | 523 nm | 64% |  |  |  |  |  |  |  | CCCCC1(CCCC)c2cc(C(F)(F)F)ccc2-c2c1c1c(c3cc(C)c(N4CCc5ccccc54)cc23)OC(c2ccc(OC)cc2)(c2ccc(OC)c(C)c2)C=C1 (stereo not drawn) [Formula (64A)] |  |  |
|  | 63 s |  | 65% | 520 nm | 67% |  |  |  |  |  |  |  | CCCOc1ccc(C2(c3ccc(OC)cc3)C=Cc3c4c(c5cc(N6CCc7ccccc76)c(C)cc5c3O2)-c2ccccc2C4(CCC)CCC)cc1 (stereo not drawn) [Formula (31A)] |  |  |
